{
  "source": "paper PMC12036814",
  "about": "(Angewandte Chemie (International Ed. in English), 2025)",
  "key": {"HEK‐293 cells": {"system": "HEK‐293 cells", "assay": "Whole proteome analysis (LC-MS/MS, LFQ) of treated HEK-293 cells", "design": "regulation of ETC complex I and IV subunits: dose or concentration left out as unconfirmed", "conditions": "[…] μM, 3 h to 14 days, versus control"}, "RAP1A": {"biological_target": "T1, RAP1A (Homo sapiens, UniProt P62834)", "T1 construct": "endogenous in cells; host or cells: HEK293", "T1 sequence (P62834 1-184)": "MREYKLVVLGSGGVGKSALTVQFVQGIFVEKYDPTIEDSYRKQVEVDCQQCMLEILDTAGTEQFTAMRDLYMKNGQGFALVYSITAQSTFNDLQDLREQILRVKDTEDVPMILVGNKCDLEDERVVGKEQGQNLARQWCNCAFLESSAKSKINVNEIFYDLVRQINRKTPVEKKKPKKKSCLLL", "assay": "Thermal protein profiling (TPP) in intact HEK293 cells", "format": "cell-based", "conditions": "1 h", "description": "(§1) incubated in a thermoshaker (600 rpm, 16 h, 37 °C). The digest was stopped by adding 10 μL formic\n(§2) acid (FA) and vortexing followed by centrifugation (12,000 ×g, 3 min, room temperature). 50 mg\n(§3) SepPak C18 columns (Waters, Milford, USA, Cat# WAT054960) were equilibrated by gravity flow two\n(§4) times with 1 mL acetonitrile and three times with 1 mL aqueous 0.1% trifluoroacetic acid (TFA) solution.\n(§5) Subsequently, the samples were loaded by gravity flow, washed three times with 1 mL aqueous 0.1%\n(§6) TFA solution and once with 0.5 mL aqueous 0.5% formic acid (F A) solution. Elution of peptides into\n(§7) new 2.0 mL Protein LoBind Eppendorf tubes was performed by two times addition of 250 μL elution\n(§8) buffer (80% acetonitrile, 0.5% FA) by gravity flow followed by 250 μL elution buffer by vacuum flow\n(§9) until all liquid was eluted from the column. The eluates were lyophilized. Before MS measurement the\n(§10) (brief centrifugation after each step).\n(§11) Thermal protein profiling (TPP)\n(§12) The experiment was performed similarly to TPP-TR experiments described by Franken et al. with minor\n(§13) modifications.5 HEK293 cells were grown in 8 T175 flasks to approx. 80-90% confluency. Per replicate\n(§14) volume of 0.1 N HCl as vehicle control. Per condition two replicates were used, leading to a total of 8\n(§15) T175 flasks. The cells were washed with PBS, detached with accutase, the two flask per replicate\n(§16) condition combined and the cells pelletized (500 ×g, 3 min, r.t.). The medium was removed and each\n(§17) pellet (Cipro #1, Cipro #2, Ctrl. #1, Ctrl #2) washed twice with cold PBS. Each pellet was resuspended\n(§18) depending on the sample. The cell suspension of each sample was distributed into 10 PCR tubes\n(§19) (100 µL per tube), resulting in 10 stripes á 4 tubes (2×2 conditions, 10 temperature points). The PCR\n(§20) tubes were subjected to the temperature gradient using a PCR cycler.\n(§21) limitations, two separate programs had to be run to cover the desired temperature range (see\n(§22) Table S4). The PCR tubes were heat-treated according to the two programs for 3 min and directly snap\n(§23) frozen in liquid nitrogen.\n(§24) manufacturer instructions."}, "TRIM26": {"biological_target": "T2, TRIM26 (Homo sapiens, UniProt Q12899)", "T2 construct": "endogenous in cells; host or cells: HEK293", "T2 sequence (Q12899 1-539)": "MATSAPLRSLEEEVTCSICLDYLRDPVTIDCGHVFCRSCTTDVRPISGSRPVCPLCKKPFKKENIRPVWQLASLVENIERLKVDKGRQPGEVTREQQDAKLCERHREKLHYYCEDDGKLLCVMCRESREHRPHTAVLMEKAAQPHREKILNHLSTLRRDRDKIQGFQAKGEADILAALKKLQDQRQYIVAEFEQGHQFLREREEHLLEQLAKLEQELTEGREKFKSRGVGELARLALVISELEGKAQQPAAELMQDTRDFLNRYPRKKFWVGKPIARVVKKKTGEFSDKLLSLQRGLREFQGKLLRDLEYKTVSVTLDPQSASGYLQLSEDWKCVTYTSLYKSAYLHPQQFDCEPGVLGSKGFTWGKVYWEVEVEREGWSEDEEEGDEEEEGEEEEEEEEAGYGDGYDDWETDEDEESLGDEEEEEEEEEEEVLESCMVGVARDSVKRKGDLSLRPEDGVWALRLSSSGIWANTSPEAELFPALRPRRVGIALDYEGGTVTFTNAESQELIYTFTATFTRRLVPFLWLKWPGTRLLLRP", "assay": "Thermal protein profiling (TPP) in intact HEK293 cells", "format": "cell-based", "conditions": "1 h", "description": "as §1, §2, §3, §4, §5, §6, §7, §8, §9, §10, §11, §12, §13, §14, §15, §16, §17, §18, §19, §20, §21, §22, §23, §24"}, "MAIP1": {"biological_target": "T3, MAIP1 (Homo sapiens, UniProt Q8WWC4)", "T3 construct": "endogenous in cells; host or cells: HEK293", "T3 sequence (Q8WWC4 97-291)": "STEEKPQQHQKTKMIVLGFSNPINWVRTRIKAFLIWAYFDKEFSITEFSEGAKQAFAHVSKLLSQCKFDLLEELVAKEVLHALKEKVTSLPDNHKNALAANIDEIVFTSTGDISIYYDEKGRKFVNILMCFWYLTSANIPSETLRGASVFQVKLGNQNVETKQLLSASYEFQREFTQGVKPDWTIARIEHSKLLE", "assay": "Thermal protein profiling (TPP) in intact HEK293 cells", "format": "cell-based", "conditions": "1 h", "description": "as §1, §2, §3, §4, §5, §6, §7, §8, §9, §10, §11, §12, §13, §14, §15, §16, §17, §18, §19, §20, §21, §22, §23, §24"}},
  "note": "Like-named read-outs stand apart in the source and are kept apart here.",
  "data": [
    {"smiles": "O=C(O)c1cn(C2CC2)c2cc(N3CCNCC3)c(F)cc2c1=O", "note": "[Ciprofloxacin]", "values": [
      {"measurement": "regulation of ETC complex I and IV subunits", "setting": "HEK‐293 cells", "result": "pronounced and time‐dependent down‐regulation of both complexes"},
      {"measurement": "ΔTm at 70 µM", "setting": "RAP1A; read-out: ΔTm Rep. 1", "result": 1.79, "unit": "°C"},
      {"measurement": "ΔTm at 70 µM", "setting": "RAP1A; read-out: ΔTm Rep. 2", "result": 2.89, "unit": "°C"},
      {"measurement": "ΔTm at 70 µM", "setting": "TRIM26; read-out: ΔTm Rep. 1", "result": 3.54, "unit": "°C"},
      {"measurement": "ΔTm at 70 µM", "setting": "TRIM26; read-out: ΔTm Rep. 2", "result": 3.88, "unit": "°C"},
      {"measurement": "ΔTm at 70 µM", "setting": "MAIP1; read-out: ΔTm Rep. 1", "result": 2.28, "unit": "°C"},
      {"measurement": "ΔTm at 70 µM", "setting": "MAIP1; read-out: ΔTm Rep. 2", "result": 3.73, "unit": "°C"}
    ]}
  ]
}
